Measurements reported in article PMC5130005, “Indolin-2-one compounds targeting thioredoxin reductase as potential anticancer drug leads” (Oncotarget, 2016).

What was measured:
[1] = target: T1, recombinant rat TrxR (Rattus norvegicus, UniProt O89049); experiment: in vitro TrxR DTNB reduction assay; assay type: biochemical; settings: 30 min incubation, 100 nM recombinant rat TrxR, 200 μM NADPH, read-out: TrxR inhibition IC50
T1 construct: made in house
T1 sequence (O89049 1-499): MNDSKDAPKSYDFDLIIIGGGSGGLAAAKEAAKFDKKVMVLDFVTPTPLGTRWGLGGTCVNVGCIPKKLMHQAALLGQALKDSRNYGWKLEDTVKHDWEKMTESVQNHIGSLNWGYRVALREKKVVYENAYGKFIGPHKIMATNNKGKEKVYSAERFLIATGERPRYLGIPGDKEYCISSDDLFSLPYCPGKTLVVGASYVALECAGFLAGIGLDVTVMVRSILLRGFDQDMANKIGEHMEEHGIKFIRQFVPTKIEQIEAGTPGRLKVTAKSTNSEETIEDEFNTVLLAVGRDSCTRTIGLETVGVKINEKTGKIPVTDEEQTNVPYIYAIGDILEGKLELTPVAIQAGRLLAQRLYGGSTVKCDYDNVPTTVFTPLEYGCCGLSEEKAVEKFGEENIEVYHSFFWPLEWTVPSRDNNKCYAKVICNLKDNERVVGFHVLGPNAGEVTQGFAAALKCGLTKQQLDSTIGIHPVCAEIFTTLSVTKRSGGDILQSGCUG
Procedure: In a volume of 100 μl of 50 mM Tris-HCl pH 7.5, 2 mM EDTA buffer (TE buffer), compounds of concentrations 1-100 μM were incubated with 100 nM recombinant rat TrxR and 200 μM NADPH at room temperature in 96-well plates for 30 and 60 min. The incubation was terminated by addition of 100 μl per well of 10 mM DTNB, 200 μM NADPH solution in TE buffer and immediately followed by measurement of linear increase of absorbance at 412 nm for the initial 2 min using the VersaMax microplate reader (Molecular Devices). The results were expressed as % of TrxR activity of drug-treated sample over that of DMSO control. The 50% inhibition concentration (IC50) values were calculated.

[2] = target: T2, yeast GR (Saccharomyces cerevisiae, UniProt P41921); experiment: in vitro yeast GR activity (glutathione reduction assay); assay type: biochemical; settings: 60 min incubation, 1-100 μM, 20 nM yeast GR, 200 μM NADPH
T2 construct: purchased Sigma
T2 sequence (P41921 17-483 limits assumed): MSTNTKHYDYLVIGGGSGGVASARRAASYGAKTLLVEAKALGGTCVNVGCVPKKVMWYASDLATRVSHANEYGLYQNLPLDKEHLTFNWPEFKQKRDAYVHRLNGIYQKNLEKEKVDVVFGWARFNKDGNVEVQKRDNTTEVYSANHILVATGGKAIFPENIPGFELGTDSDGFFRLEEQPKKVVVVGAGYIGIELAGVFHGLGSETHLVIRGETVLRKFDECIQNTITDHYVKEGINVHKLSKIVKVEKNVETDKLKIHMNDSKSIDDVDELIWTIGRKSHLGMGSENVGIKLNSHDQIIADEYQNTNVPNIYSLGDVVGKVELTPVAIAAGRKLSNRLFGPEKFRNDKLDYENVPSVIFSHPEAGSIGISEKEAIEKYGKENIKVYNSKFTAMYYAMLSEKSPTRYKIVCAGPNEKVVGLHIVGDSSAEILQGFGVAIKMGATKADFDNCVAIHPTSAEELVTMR
Procedure: To determine in vitro yeast GR activity, compounds of concentrations 1-100 μM were incubated with 20 nM yeast GR and 200 μM NADPH in a volume of 100 μl phosphate buffer (0.1 M sodium phosphate, 2 mM EDTA pH 7.5) for 1 h at room temperature. At the end of the incubation, 100 μl of […] GSSG (final concentration 500 μM) and 200 μM NADPH in phosphate buffer was added to each well. NADPH consumption was monitored by measurement of absorbance at 340 nm using the VersaMax microplate reader. The results were calculated based on decrease in absorbance in the initial 90 s and expressed as a percentage of the enzyme activity of the DMSO-treated sample. For determination of cellular GR activity, 25 μg of cell lysate was mixed with a solution of GSSG and NADPH in phosphate buffer to a final volume of 200 μl (final GSSG and NADPH concentrations 1 mM and 200 μM respectively). The enzyme activity was determined by measuring the decrease in absorbance at 340 nm for 10 min at 37°C and expressed as a percentage of the enzyme activity of that of the DMSO-treated sample.

[3] = cell viability, MRC-5 normal lung fibroblasts; assay type: cell-based; settings: MRC-5 human normal lung fibroblasts, read-out: LC50, MRC-5 cells
[4] = target: T1, recombinant rat TrxR; experiment: reversibility of TrxR inhibition (desalting, DTNB reduction assay); assay type: biochemical; settings: 20 μM, 30 min, then desalting; activity followed 2 h post-desalting
[5] = target: T1, recombinant rat TrxR; experiment: juglone reduction versus DTNB reduction by recombinant rat TrxR; assay type: biochemical; settings: 15 min incubation, 15 nM TrxR, 250 μM NADPH, 1-100 μM
Procedure: The assay, designed to determine the ability of mammalian TrxR to reduce juglone at the N-terminal active center, was performed as described previously. Briefly, 2 μl of diluted DMSO stocks of compounds 4 and 5 (final concentrations 1-100 μM) were incubated in 198 μl of 15 nM recombinant rat TrxR, 250 μM NADPH and 0.1 mg/ml BSA in TE buffer at room temperature in 96-well plates for 15 min. 100 mM stock solution of juglone in DMSO was prepared fresh for each experiment and diluted in TE buffer to a 300 μM working solution. The incubation was terminated by the addition of 100 μl of 300 μM juglone solution (final concentration 100 μM), and NADPH consumption was monitored at 340 nm for 5 min using the VersaMax microplate reader. The linear decrease in NADPH absorbance was used for calculating juglone reduction activity. The results were expressed as % of TrxR juglone reduction activity of drug-treated sample over that of DMSO-treated sample.
The experiments were performed at the same time with a corresponding DTNB reduction assay as described above with modifications so as to keep the experimental parameters and conditions similar to those in the juglone reduction assay. […] Following 15 min incubation with compound 4 or 5, 50 μl of 8.75 μM DTNB solution (final concentration 1.75 μM) was added to each well and DTNB reduction was measured at 412 nm for 2 min.

| Structure (SMILES) | IC50 [1] [µM] | yeast GR activity [2] | CC50 at 72 h [3] [µM] | reversibility of TrxR inhibition [4] | juglone reduction compared with DTNB reduction by inhibited TrxR [5] |
| --- | --- | --- | --- | --- | --- |
| CC(=O)C=C1C(=O)N(C)c2ccccc21 [Compound 1, 1-methyl-3(2-oxopropylidene)indolin-2-one] | 22.1 ± 1.8 | uninhibited |  |  |  |
| CCCCN1C(=O)/C(=C/C(C)=O)c2ccccc21 [Compound 4] | 8.6 ± 0.9 | uninhibited | 25.5 ± 2.7 | irreversible inhibitors of TrxR | juglone reduction was more preserved than DTNB reduction |
| CC(=O)/C=C1/C(=O)N(Cc2ccccc2)c2ccccc21 [Compound 5] | 6.2 ± 1.7 | uninhibited | 22.7 ± 2.4 | irreversible inhibitors of TrxR | juglone reduction was more preserved than DTNB reduction |
| CN1C(=O)/C(=C/C(=O)c2ccccc2)c2ccccc21 [Compound 6] | 14.7 ± 3.2 | uninhibited |  |  |  |
